Measured values as given in the NIST ThermoML archive (doi:10.1021/je0604232).

Experiment: molar heat capacity at constant pressure; xn = mol fraction of the nth substance listed
Settings: 101 kPa, Liquid

CNCCO [2-(methylamino)ethanol] + O
molar heat capacity at constant pressure [J/K/mol]
Settings	x1 = 0.1	x1 = 0.1998	x1 = 0.3003	x1 = 0.399	x1 = 0.5002	x1 = 0.6061	x1 = 0.6987	x1 = 0.8003	x1 = 0.9004	x1 = 1
303.15 K	96	108	119	129	139	151	160	172	182	194
308.15 K	98	111	122	132	143	155	165	176	187	199
313.15 K	99	113	124	135	146	157	167	178	189	200
318.15 K	100	114	126	137	148	160	170	180	190	202
323.15 K	101	116	128	139	150	162	172	183	192	203
328.15 K	103	118	131	142	153	165	175	185	195	205
333.15 K	105	121	134	145	157	168	178	188	197	206
338.15 K	107	124	138	149	161	172	182	191	199	207
343.15 K	110	127	141	153	164	176	185	194	201	208
348.15 K	114	132	146	158	169	181	190	198	205	210
353.15 K	119	138	152	163	174	186	195	203	208	212

NCCNCCO [N-(2-aminoethyl)ethanolamine] + O
molar heat capacity at constant pressure [J/K/mol]
Settings	x1 = 0.0999	x1 = 0.1999	x1 = 0.2995	x1 = 0.4	x1 = 0.5002	x1 = 0.5997	x1 = 0.7011	x1 = 0.8003	x1 = 0.8979	x1 = 1
303.15 K	100	121	141	161	181	201	221	240	258	279
308.15 K	103	125	145	165	185	205	226	245	263	284
313.15 K	104	127	147	167	187	207	227	247	265	285
318.15 K	106	129	150	170	190	209	229	249	266	286
323.15 K	107	131	152	172	192	211	231	250	267	287
328.15 K	110	134	155	175	195	214	233	252	269	289
333.15 K	112	137	158	178	197	216	235	254	271	290
338.15 K	116	141	162	181	201	219	238	257	273	292
343.15 K	120	146	167	185	204	223	241	260	275	293
348.15 K	124	152	172	189	208	227	244	262	277	295
353.15 K	130	158	177	194	213	231	248	265	279	296
